ChEMBL document CHEMBL1201862, “PubChem BioAssay data set” (2004)
Activity calls are given as the source filed them. No stated cut-off is given here; in the data, actives have a measured IC50 and inactives only a lower limit.

Molecular target: Envelope glycoprotein gp160 (Human immunodeficiency virus 1, UniProt Q6QLK5)
Test: inhibitors of HIV fusion peptide binding, primary screen, biochemical, uHTS, fluorescence dequenching (AID 1986)

Chain of Envelope glycoprotein gp160 (Q6QLK5 whole entry, the tested form may be a part): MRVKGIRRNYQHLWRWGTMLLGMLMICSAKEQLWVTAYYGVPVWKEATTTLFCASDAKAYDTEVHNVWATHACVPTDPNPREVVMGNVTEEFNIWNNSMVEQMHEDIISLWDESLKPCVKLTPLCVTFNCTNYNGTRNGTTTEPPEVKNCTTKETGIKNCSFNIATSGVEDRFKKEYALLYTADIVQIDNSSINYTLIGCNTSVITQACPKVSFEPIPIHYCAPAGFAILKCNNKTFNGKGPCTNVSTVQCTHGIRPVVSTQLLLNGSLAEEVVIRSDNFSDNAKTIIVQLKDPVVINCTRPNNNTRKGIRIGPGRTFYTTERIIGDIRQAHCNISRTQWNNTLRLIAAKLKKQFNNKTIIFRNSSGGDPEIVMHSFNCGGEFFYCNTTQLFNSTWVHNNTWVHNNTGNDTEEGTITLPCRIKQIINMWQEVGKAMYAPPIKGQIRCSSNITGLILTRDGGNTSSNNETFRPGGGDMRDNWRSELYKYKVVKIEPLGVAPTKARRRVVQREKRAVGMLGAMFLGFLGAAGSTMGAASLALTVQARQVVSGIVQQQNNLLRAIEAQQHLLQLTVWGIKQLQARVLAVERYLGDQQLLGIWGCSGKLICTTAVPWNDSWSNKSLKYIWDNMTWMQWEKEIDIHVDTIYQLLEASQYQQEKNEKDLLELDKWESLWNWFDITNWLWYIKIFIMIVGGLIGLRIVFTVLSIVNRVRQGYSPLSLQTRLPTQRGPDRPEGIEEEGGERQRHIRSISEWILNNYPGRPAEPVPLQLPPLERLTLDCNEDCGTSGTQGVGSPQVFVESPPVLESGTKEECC

Question: With Cc1[nH]n(-c2ccccc2)c(=O)c1/C=C1/C(=O)NN(c2ccc(F)c(Cl)c2)C1=O as the compound, how does the IC50 read?
Answer: 12.1 µM (active)
